Read-outs that look alike come from different tables or passages of the source.

A word on the IC50: it is the concentration that gives 50% inhibition. As usually defined, the EC50 is the midpoint of the concentration-response curve. Low readings indicate an effect from little substance, high ones a need for much substance.

Experiment [1] addresses T1, SIK2 (Homo sapiens, UniProt Q9H0K1).
T1 construct: purchased ThermoFisher Scientific PV4792
As to the kind of experiment: biochemical. Conditions: 33P radioactive SIK kinase assay, AMARA peptide, 10 μM ATP. In short, it runs like this:
(§1)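 Read-out: ^33P incorporated into AMARA peptide, counted on filter plates, taken as kinase activity. Reactions start on addition of labeled/unlabeled ATP to enzyme plus substrate and end with phosphoric acid. Controls: 1% DMSO (negative) and 10 μM staurosporine (positive), final.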

The target in experiment [2] is T2, SIK1 (Homo sapiens, UniProt P57059).
T2 construct: purchased Carna Biosciences 02-131
T2 sequence (P57059 whole entry): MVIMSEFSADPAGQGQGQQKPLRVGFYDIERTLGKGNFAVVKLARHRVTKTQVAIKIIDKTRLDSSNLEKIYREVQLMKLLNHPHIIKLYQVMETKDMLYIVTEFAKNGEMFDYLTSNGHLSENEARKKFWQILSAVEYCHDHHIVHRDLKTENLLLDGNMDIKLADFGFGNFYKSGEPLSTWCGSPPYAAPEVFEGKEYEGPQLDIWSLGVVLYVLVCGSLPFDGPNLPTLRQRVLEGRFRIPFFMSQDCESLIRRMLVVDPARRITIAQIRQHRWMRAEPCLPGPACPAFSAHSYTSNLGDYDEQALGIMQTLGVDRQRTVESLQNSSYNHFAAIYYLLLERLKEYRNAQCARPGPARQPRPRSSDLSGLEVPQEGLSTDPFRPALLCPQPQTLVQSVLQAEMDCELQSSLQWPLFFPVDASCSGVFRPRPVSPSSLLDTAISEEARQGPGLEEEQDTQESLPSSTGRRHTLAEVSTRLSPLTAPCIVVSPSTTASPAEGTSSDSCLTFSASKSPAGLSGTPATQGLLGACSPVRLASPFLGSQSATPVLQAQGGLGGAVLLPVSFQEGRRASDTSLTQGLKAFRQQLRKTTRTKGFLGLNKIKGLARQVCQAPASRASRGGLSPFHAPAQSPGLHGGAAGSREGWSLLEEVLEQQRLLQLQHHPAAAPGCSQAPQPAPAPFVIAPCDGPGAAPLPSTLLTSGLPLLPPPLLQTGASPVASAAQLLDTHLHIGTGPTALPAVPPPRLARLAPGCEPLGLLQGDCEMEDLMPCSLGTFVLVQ
As to the kind of experiment: biochemical. Conditions: 33P radioactive SIK kinase assay, AMARA peptide, 10 μM ATP; read-out: SIK1 IC50. In short, it runs like this:
as §1

For experiment [3], the target named is T3, SIK3 (Homo sapiens, UniProt Q9Y2K2).
T3 construct: purchased SignalChem S12-11G-100
T3 sequence (Q9Y2K2 whole entry): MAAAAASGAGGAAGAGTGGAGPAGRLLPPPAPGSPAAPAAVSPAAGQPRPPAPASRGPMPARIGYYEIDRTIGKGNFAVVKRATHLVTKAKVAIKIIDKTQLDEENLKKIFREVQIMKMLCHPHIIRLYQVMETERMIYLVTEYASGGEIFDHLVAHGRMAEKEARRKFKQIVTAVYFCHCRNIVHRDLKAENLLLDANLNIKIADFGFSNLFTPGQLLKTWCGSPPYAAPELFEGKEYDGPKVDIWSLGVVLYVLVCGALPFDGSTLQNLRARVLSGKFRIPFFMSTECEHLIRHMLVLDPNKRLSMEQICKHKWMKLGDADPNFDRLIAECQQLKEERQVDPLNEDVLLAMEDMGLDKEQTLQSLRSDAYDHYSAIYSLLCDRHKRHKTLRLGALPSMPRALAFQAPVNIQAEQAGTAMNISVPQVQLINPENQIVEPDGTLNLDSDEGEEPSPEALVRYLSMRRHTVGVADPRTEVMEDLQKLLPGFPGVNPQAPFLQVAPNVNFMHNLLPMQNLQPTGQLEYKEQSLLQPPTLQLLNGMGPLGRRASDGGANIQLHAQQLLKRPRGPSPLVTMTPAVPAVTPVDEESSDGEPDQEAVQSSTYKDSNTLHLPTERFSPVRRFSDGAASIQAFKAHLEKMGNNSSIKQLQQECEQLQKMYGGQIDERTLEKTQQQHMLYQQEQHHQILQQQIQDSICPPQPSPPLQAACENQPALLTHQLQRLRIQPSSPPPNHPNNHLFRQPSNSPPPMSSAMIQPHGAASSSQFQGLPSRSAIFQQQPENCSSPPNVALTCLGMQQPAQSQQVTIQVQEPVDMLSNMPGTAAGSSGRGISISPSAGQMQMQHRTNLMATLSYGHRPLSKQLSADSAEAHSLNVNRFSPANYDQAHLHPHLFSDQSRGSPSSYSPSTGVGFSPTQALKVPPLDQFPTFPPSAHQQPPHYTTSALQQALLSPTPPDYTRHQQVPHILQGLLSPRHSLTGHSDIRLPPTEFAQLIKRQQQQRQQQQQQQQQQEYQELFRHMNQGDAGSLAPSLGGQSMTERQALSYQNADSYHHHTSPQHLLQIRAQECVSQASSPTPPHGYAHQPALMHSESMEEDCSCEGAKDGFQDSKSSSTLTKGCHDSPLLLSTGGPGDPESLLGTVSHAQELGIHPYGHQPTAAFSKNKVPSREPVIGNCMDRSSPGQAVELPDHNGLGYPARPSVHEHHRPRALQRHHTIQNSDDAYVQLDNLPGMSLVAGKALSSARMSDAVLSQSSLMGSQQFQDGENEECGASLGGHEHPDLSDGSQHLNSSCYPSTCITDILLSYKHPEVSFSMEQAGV
As to the kind of experiment: biochemical. In short, it runs like this:
as §1

Experiment [4] deals with T1, SIK2. As to the kind of experiment: biochemical. Conditions: ADP-Glo SIK kinase assay. Here is the method:
(§2) The ADP-Glo™ kinase assay is a luminescent technology assay which measures the ADP formed from a kinase reaction. […] In a second step the kinase reactions are terminated and all the remaining ATP is depleted. In a final step the ADP is converted into ATP and this newly synthesized ATP is measured by using a luciferase/luciferin reaction. The generated light is measured using an Envision plate reader, wherein the luminescent signal obtained positively correlates with the kinase activity.
(§3) 1% DMSO and 10 μM staurosporine final concentrations are used as negative and positive controls.
(§4) 2 μL enzyme-substrate mixture is added to the assay plates.
(§5) The reaction is started by adding 2 μL diluted ATP on the assay plates. Plates are centrifuged for a few seconds at 1000 rpm and gently shaken for 2 min followed by an incubation at RT for 120 min.
(§6) The reactions are stopped and the unconsumed ATP is depleted by adding 5 μL ADP-Glo Reagent (Promega, Cat #V912B) to the reaction. The plates are centrifuged for a few seconds at 1000 rpm and incubated at RT for 40 min (ATP depletion).
(§7) The ADP is converted to ATP and luciferase and luciferin is introduced to detect ATP by adding 10 μL Kinase Detection Reagent (Promega, Cat #V913B+V914B) to the reaction. The plates are centrifuged for a few seconds at 1000 rpm and incubated at RT for 30 min (ADP detection).
(§8) Luminescence is measured on an Envision plate reader (PerkinElmer Inc.).

The target in experiment [5] is T2, SIK1. Nature of the experiment: biochemical. Conditions: ADP-Glo SIK kinase assay. Here is the method:
as §2, §3, §4, §5, §6, §7, §8

In experiment [6] the target is T3, SIK3. Nature of the experiment: biochemical. Conditions: ADP-Glo SIK kinase assay. As to the method: as §2, §3, §4, §5, §6, §7, §8
For orientation: ADP-Glo turns the ADP formed in a reaction into a luminescent signal.

Experiment [7] relates to LPS-induced TNFα secretion in monocyte-derived macrophages (MdM). Nature of the experiment: MdM assay: LPS-triggered TNFα (ELISA). The conditions noted are these: Homo sapiens, Macrophage, LPS-triggered TNFα inhibition. The class given is cell-based, human. In short, it runs like this:
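TNFα ELISA read on supernatants harvested 20 h after LPS (final 200 ng/mL) stimulation. Cells were day-10 macrophages derived from human blood CD14+ monocytes, exposed to 3-fold compound dilutions for 1 h at 37 °C beforehand, with DMSO held at 0.2%.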
A general note: ELISA stands for enzyme-linked immunosorbent assay.

T1 sequence (Q9H0K1 whole entry): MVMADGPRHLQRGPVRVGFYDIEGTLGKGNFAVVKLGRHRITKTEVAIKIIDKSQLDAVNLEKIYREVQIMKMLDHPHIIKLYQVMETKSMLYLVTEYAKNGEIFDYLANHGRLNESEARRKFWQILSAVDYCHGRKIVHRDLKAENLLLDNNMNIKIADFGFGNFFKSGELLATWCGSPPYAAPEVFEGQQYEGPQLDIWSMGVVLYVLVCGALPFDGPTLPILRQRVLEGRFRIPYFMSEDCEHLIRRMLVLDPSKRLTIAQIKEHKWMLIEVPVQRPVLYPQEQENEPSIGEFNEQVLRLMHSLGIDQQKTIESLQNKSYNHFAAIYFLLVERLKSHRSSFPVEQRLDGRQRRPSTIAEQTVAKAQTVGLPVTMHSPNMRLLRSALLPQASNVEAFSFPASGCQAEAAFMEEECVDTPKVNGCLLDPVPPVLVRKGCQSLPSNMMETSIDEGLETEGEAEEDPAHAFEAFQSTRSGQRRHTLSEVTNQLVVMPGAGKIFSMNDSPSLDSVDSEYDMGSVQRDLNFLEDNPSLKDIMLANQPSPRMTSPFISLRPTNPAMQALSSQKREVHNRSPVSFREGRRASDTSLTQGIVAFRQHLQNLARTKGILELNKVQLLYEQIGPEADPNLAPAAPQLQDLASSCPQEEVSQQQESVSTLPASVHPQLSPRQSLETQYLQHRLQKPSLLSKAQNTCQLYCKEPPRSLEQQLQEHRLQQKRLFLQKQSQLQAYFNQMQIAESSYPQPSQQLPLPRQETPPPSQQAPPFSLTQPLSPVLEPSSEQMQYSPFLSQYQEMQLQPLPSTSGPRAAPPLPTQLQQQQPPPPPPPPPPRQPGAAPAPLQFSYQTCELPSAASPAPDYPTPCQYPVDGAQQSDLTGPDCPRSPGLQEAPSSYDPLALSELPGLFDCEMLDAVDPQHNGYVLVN

In the case of `COc1cc(-c2cnc3cc(-c4cnccc4C#N)ccn23)cc(OC)c1C(=O)NCC(F)(F)F` [Cpd 258], the IC50 at SIK2 [1] was above 500 nM; at SIK1 [2], above 500 nM; at SIK3 [3], 100 to 500 nM; against SIK2 [4] it was above 500 nM; against SIK1 [5], above 500 nM; on SIK3 [6], 10 to 100 nM.
For `COc1cc(-c2cnc3cc(-c4cnccc4C(N)=O)ccn23)cc(OC)c1C(=O)NCC(F)(F)F` [Cpd 259, 3-[3-[3,5-dimethoxy-4-(2,2,2-trifluoroethyl-carbamoyl)phenyl]imidazo[1,2-a]pyridin-7-yl]pyridine-4-carboxamide], the IC50 at SIK2 [1] is above 500 nM; on SIK1 [2], above 500 nM; on SIK3 [3], 100 to 500 nM; on SIK2 [4], above 500 nM; on SIK1 [5], above 500 nM; at SIK3 [6], 10 to 100 nM.
Regarding `COc1cc(-c2cnc3cc(-c4ccc(C)nn4)ccn23)cc(OC(F)F)c1C(=O)NC1CC1` [Cpd 273, N-cyclopropyl-2-(difluoromethoxy)-6-methoxy-4-[7-(6-methylpyridazin-3-yl)imidazo[1,2-a]pyridin-3-yl]benzamide], the IC50 lay within 0.01 to 10 nM at SIK2 [4], 10 to 100 nM on SIK1 [5] and 0.01 to 10 nM at SIK3 [6]. In experiment [7], this compound showed a concentration giving a half-maximal response (EC50) of 0.1 to 100 nM.
As to `COc1cc(-c2cnc3cc(-c4cnn(C)c4)ccn23)cc(F)c1C(=O)NC1CC1` [Cpd 276, N-cyclopropyl-2-fluoro-6-methoxy-4-[7-(1-methylpyrazol-4-yl)imidazo[1,2-a]pyridin-3-yl]benzamide], the values for the IC50 against SIK2 [4], at SIK1 [5] and on SIK3 [6] were 0.01 to 10 nM, 10 to 100 nM and 0.01 to 10 nM, respectively. This compound also gave a half-maximal effective concentration (EC50) in experiment [7] of 0.1 to 100 nM.
As for `COCCOc1cc(-c2cnc3cc(-c4cnn(C)c4)ccn23)cc(OC)c1C(=O)NC1CC1` [Cpd 278, N-cyclopropyl-2-methoxy-6-(2-methoxyethoxy)-4-[7-(1-methylpyrazol-4-yl)imidazo[1,2-a]pyridin-3-yl]benzamide], the concentration for half-maximal inhibition (IC50) against SIK2 [4] is 0.01 to 10 nM; against SIK1 [5], 10 to 100 nM; on SIK3 [6], 0.01 to 10 nM. This compound came in with an EC50 in experiment [7] of 100 to 1000 nM.
Regarding `CCOC(=O)C(Cn1cc(-c2ccn3c(-c4cc(OC)c(C(=O)NCC(F)(F)F)c(OC)c4)cnc3c2)cn1)C(C)C` (stereo not shown) [Cpd 294], the IC50 on SIK2 [4], at SIK1 [5] and on SIK3 [6] was 0.01 to 10 nM each time. Also, the half-maximal effective concentration (EC50) in experiment [7] was in the range of 0.1 to 100 nM.
As for `COc1cc(-c2cnc3cc(-c4cnn(C)c4)ccn23)cc(OC)c1C(=O)N[C@H]1C[C@@H]1C(F)F` [compound 172, N-[(1S,2S)-2-(difluoromethyl)cyclopropyl]-2,6-dimethoxy-4-[7-(1-methylpyrazol-4-yl)imidazo[1,2-a]pyridin-3-yl]benzamide], the half-maximal inhibitory concentration (IC50) on SIK2 [1] lay within 0.01 to 10 nM; at SIK1 [2], 10 to 100 nM; against SIK3 [3], 0.01 to 10 nM; on SIK2 [4], 0.01 to 10 nM; on SIK1 [5] it was 0.01 to 10 nM; against SIK3 [6], 0.01 to 10 nM.
In the case of `CCN1Cc2cc(-c3cnc4cc(-c5cnn(C)c5)ccn34)cc(NCCO)c2C1=O` [compound 201, 2-ethyl-7-(2-hydroxyethylainino)-5-[7-(1-methylpyrazol-4-yl)imidazo[1,2-a]pyridin-3-yl]isoindolin-1-one], the half-inhibitory concentration (IC50) is 10 to 100 nM at SIK2 [1]; above 500 nM on SIK1 [2]; 100 to 500 nM against SIK3 [3]; 10 to 100 nM on SIK2 [4]; 100 to 500 nM against SIK1 [5]; 10 to 100 nM at SIK3 [6].
Turning to `COc1cc(-c2cnc3cc(-c4cnn(C5CN(C(=O)OC(C)(C)C)C5)c4)ccn23)cc(OC)c1C(=O)NCC(F)(F)F` [compound 260, tert-butyl 3-[4-[3-[3,5-dimethoxy-4-(2,2,2-trifluoroethyl-carbamoyl)phenyl]imidazo[1,2-a]pyridin-7-yl]pyrazol-1-yl]azetidine-1-carboxylate], the 50% inhibitory concentration (IC50) on SIK2 [1], at SIK1 [2], on SIK3 [3], against SIK2 [4], against SIK1 [5] and at SIK3 [6] was 0.01 to 10 nM throughout.

Values taken from patent publication US12065443B2, “Compounds and pharmaceutical compositions thereof for the treatment of diseases” (priority 2017, dated 2024).
